Assay results reported in PubChem BioAssay AID1033 (Sanford-Burnham Center for Chemical Genomics, 2008).
Active and inactive are the calls of the source. No rule for the calls is given here.

target: Chaperone protein DnaK (Escherichia coli (strain K12)) (UniProt P0A6Y8); test: binders of DnaK substrate-binding domain, biophysical, NMR, chaperone (AID 1033); conditions: Purified DnaK SBD, NMR ligand binding
Sequence (P0A6Y8 whole entry, looked up, the tested form may be a part): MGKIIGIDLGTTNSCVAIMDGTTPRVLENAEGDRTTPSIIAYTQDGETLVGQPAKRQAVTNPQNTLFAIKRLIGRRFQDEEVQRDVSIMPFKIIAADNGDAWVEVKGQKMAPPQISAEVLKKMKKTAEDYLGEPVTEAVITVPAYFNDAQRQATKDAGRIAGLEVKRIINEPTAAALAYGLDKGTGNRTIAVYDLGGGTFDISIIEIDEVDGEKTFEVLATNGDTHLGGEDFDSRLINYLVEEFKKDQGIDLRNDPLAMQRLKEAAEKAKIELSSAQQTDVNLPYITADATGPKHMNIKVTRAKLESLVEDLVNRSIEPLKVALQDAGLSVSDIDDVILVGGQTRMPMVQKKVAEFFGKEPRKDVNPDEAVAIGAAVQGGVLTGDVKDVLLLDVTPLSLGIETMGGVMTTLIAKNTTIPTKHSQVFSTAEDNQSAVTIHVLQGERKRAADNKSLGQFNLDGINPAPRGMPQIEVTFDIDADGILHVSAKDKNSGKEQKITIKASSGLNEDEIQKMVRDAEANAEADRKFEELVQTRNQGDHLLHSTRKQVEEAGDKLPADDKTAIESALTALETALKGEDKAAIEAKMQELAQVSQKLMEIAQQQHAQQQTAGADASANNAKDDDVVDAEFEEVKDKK

Compound	Kd
C[C@H]1CCCC(=O)CCC/C=C/c2cc(O)cc(O)c2C(=O)O1	> 4 mM (inactive)
COc1cccc(NC(=O)c2nc3ncccn3n2)c1	> 4 mM (inactive)
O=C1NC2NC(=O)N(c3ccccc3)C2N1 (stereo not drawn)	> 4 mM (inactive)
COC(=O)CSc1nnc(-c2ccc(C(=O)O)cc2)o1	> 4 mM (inactive)
CNC(=O)N1CCN(C(=O)NC)CC1	> 4 mM (inactive)
O=C(Nc1ccncc1)Nc1ccc(F)cc1F	> 4 mM (inactive)
CCN1CCN(CCCNc2ncnc3nc[nH]c23)CC1	> 4 mM (inactive)
CC1(C)NCCN2C(=O)CSC21 (stereo not drawn)	> 4 mM (inactive)
CCc1noc(C)c1C(=O)Nc1ncc(C)s1	> 4 mM (inactive)
O=c1cccc2n1C[C@H]1CNCC2C1	> 4 mM (inactive)
CC(=O)Oc1cc(OC(C)=O)c2c(c1)O[C@H](c1ccc(OC(C)=O)c(OC(C)=O)c1)[C@H](OC(C)=O)C2	> 4 mM (inactive)
NS(=O)(=O)c1ccc(N=C2NC(=O)CS2)cc1	> 4 mM (inactive)
O=C(Cn1cnc2ccccc2c1=O)N1CCOCC1	> 4 mM (inactive)
CS(=O)(=O)NC1CCN(Cc2ccccc2)CC1	> 4 mM (inactive)
NC(=O)c1ccc(N=Cc2ccc[nH]2)cc1	> 4 mM (inactive)
CN(C)N1C(=O)c2ccccc2C1=O	> 4 mM (inactive)
CN1CCn2c1nc(N1CCCCC1)nc2=O	> 4 mM (inactive)
O=CN1CCN(C(=O)c2ccc(F)cc2)CC1	> 4 mM (inactive)
Fc1cccc(Cl)c1CN1CCCNCC1	> 4 mM (inactive)
CCC(CO)NC(=O)c1snnc1C (stereo not drawn)	> 4 mM (inactive)
COC(=O)C[C@@H]1C2(C)C(=O)[C@@H](CC3=C4CC(=O)O[C@@H](c5ccoc5)[C@]4(C)CCC32)[C@H](OC(C)=O)C1(C)C (stereo partly drawn)	> 4 mM (inactive)
Nc1nc(-c2ccc(F)c(F)c2)cs1	> 4 mM (inactive)
Clc1ccccc1OCc1nc(-c2ccncc2)no1	> 4 mM (inactive)
COC(=O)Cc1csc(N)n1	> 4 mM (inactive)

Compound	Kd
CNC(=O)Nc1cccc(C(F)(F)F)c1	> 4 mM (inactive)
O=C(Nc1nncs1)c1c(F)c(F)c(F)c(F)c1F	> 4 mM (inactive)
CSc1ccccc1NC(=O)c1cccnc1	> 4 mM (inactive)
COC(=O)C[C@H]1C(C)(C)C(=O)[C@@H]2CC3=C4CC(=O)O[C@@H](c5ccoc5)[C@]4(C)CCC3C1(C)C2=O (stereo partly drawn)	> 4 mM (inactive)
O=C1NC(=S)NC(=O)C1=Cc1ccccc1O	> 4 mM (inactive)
CN1CCN(c2ccc(N)cc2)CC1	> 4 mM (inactive)
CCOc1cc(S(=O)(=O)n2nc(C)cc2C)ccc1F	> 4 mM (inactive)
CCS(=O)(=O)N1CCN(c2ccccc2F)CC1	> 4 mM (inactive)
Cc1nc2ccccc2c(=O)n1-c1cccc(O)c1	> 4 mM (inactive)
CC(C)(C)CC(=O)NC1=NCCS1	> 4 mM (inactive)
CN1CCC(=NNC(=O)c2ccco2)CC1	> 4 mM (inactive)
CN(C)c1ccc(/C=C2/NC(=S)NC2=O)cc1	> 4 mM (inactive)
Cc1sc2nc(NCCO)[nH]c(=O)c2c1C	> 4 mM (inactive)
Cc1nnsc1C(=O)Nc1ccccc1[N+](=O)[O-]	> 4 mM (inactive)
Fc1ccc2onc(C3CCNCC3)c2c1	> 4 mM (inactive)
O=C(Oc1ccc(-c2nnco2)cc1)N1CCOCC1	> 4 mM (inactive)
CN(C)S(=O)(=O)c1ccc(N2CCOCC2)nc1	> 4 mM (inactive)
O=C1CCC(=O)N1c1ccc(F)cc1	> 4 mM (inactive)
CCOC(=O)c1ccc2c(c1)nnn2C	> 4 mM (inactive)
Cc1nn2c(=O)nc3sc4c(c3c2[nH]c1=O)CCCC4	> 4 mM (inactive)
CN(C)C(=O)Nc1ccc2c(c1)nnn2C	> 4 mM (inactive)
O=C(O)CC1C(=O)NCCN1Cc1ccccc1 (stereo not drawn)	> 4 mM (inactive)
c1ccc2c(NC3=NCCS3)cccc2c1	> 4 mM (inactive)
CC(C)(C)C(=O)N1CCCC1C(=O)O (stereo not drawn)	> 4 mM (inactive)

Compound	Kd
O=C(NCc1ccccn1)c1ccccc1Cl	> 4 mM (inactive)
COc1cc2c(cc1-c1cc3cc4ccoc4cc3oc1=O)OCO2	> 4 mM (inactive)
COC1=CC(=O)C[C@@H](C)[C@]12Oc1c(Cl)c(OC)cc(OC)c1C2=O	> 4 mM (inactive)
CCNC(=O)CC1Nc2ccccc2NC1=O (stereo not drawn)	> 4 mM (inactive)
Cc1ccc(C(=O)Nc2nnc(-c3ccncc3)s2)o1	> 4 mM (inactive)
Cc1nc2ccccc2c(=O)n1NC(=O)C1CCCCC1	> 4 mM (inactive)
Cc1nc2ccccc2c(=O)n1/N=C/c1ccco1	> 4 mM (inactive)
CC(=O)O[C@@H]1CC2C(C)(C)C(=O)C=C[C@]2(C)C2CC[C@@]3(C)[C@H](c4ccoc4)OC(=O)[C@H]4O[C@]43[C@@]21C (stereo partly drawn)	> 4 mM (inactive)
NC(=O)C1CCN(C(=S)Nc2ccccc2)CC1	> 4 mM (inactive)
Cc1occc1C(=O)NCc1ccccn1	> 4 mM (inactive)
Cc1cc(/C=N/O)nc(=O)[nH]1	> 4 mM (inactive)
CNC(=O)C(=O)Nc1c(C)cccc1C	> 4 mM (inactive)
NC(=O)c1ccc(N2C(=O)C=CC2=O)cc1Cl	> 4 mM (inactive)
COc1cc(C(C)=O)ccc1OCC(O)Cn1ccnc1 (stereo not drawn)	> 4 mM (inactive)
C=C(C)[C@H]1Cc2c(ccc3c2O[C@@H]2COc4cc(OC)c(OC)cc4[C@@H]2C3=O)O1	> 4 mM (inactive)
Nc1nnc(SCc2ccc3c(c2)OCO3)s1	> 4 mM (inactive)
COc1cc(S(=O)(=O)Nc2cccnc2)ccc1F	> 4 mM (inactive)
Cc1ccc(-n2cnnn2)c2cccnc12	> 4 mM (inactive)
NC(=O)CSc1nc2ccccc2o1	> 4 mM (inactive)
Nc1ccc(OC(F)(F)F)cc1	> 4 mM (inactive)
CN1CCN(C(=O)c2cc(-c3ccccc3)on2)CC1	> 4 mM (inactive)
COc1ccc(C[C@H]2NC[C@H](O)[C@H]2OC(C)=O)cc1	> 4 mM (inactive)
Cc1nc(-c2cc(C(=O)O)no2)cs1	> 4 mM (inactive)
COC(=O)c1cc2cc(N)ccc2s1	> 4 mM (inactive)

Compound	Kd
O=C1c2ccncc2C(=O)N1CNc1ccccn1	> 4 mM (inactive)
CC1(C(=O)O)CC2C=CC1C2 (stereo not drawn)	> 4 mM (inactive)
CCCn1c(S(=O)(=O)O)nc2ccccc21	> 4 mM (inactive)
O=C(Nn1cnnc1)c1csc2ccccc12	> 4 mM (inactive)
O=c1cnnc(SCCc2ccccc2)[nH]1	> 4 mM (inactive)
C=CCc1cc(C(=O)N2CCCCC2)ccc1O	> 4 mM (inactive)
OCCN1CCN(C(=S)c2ccc(Cl)cc2)CC1	> 4 mM (inactive)
CCC(=O)Nc1cccc(NC(C)=O)c1	> 4 mM (inactive)
O=C(Nn1cnnc1)c1csc2c1CCCC2	> 4 mM (inactive)
O=C(NC(=S)NCCO)c1ccccc1	> 4 mM (inactive)
NC(=O)CC1Sc2ccccc2NC1=O (stereo not drawn)	> 4 mM (inactive)
Cn1ncc(NC(=O)Nc2ccc(F)cc2F)c1C(N)=O	> 4 mM (inactive)
COC(=O)Cn1c2ccccc2c2nc(C)sc21	> 4 mM (inactive)
COc1ccc2c(c1)OCC(Cc1ccc(OC)c(O)c1)C2=O (stereo not drawn)	> 4 mM (inactive)
Cc1ccc(NC(=O)C2CCCNC2=O)nc1 (stereo not drawn)	> 4 mM (inactive)
O=C1Cc2ccccc2N1c1ccccc1	> 4 mM (inactive)
Nc1ccc(N2CCOCC2)c(Cl)c1	> 4 mM (inactive)
O=c1c2ccccc2nc2n1CCC2O (stereo not drawn)	> 4 mM (inactive)
CC(=O)N1CCN(S(=O)(=O)c2ccccc2)CC1	> 4 mM (inactive)
Cc1c(/C=N/O)cnn1C	> 4 mM (inactive)
CC(=O)C1CCC2C3CCC4C[C@H](O)CCC4(C)C3C[C@H](O)C12C (stereo partly drawn)	> 4 mM (inactive)
CC1SC(=NC(=O)c2ccncc2)NC1=O (stereo not drawn)	> 4 mM (inactive)
Clc1ncc2[nH]cnc2n1	> 4 mM (inactive)
CCCCCC(=O)Cc1cc(O)cc(O)c1C(=O)Oc1cc(CC(=O)CCCCC)c(C(=O)O)c(OC)c1	> 4 mM (inactive)

Compound	Kd
Cc1cc(C(=O)N2CCN(c3ccccn3)CC2)no1	> 4 mM (inactive)
Nc1ccc(O)cn1	> 4 mM (inactive)
C/C=C/c1ccc2c(c1)OCO2	> 4 mM (inactive)
O=C(O)c1cc(=O)[nH]c2ccccc12	> 4 mM (inactive)
O=C(O)c1cc(O)c2c(c1)C(=O)c1cc(O)cc(O)c1C2=O	> 4 mM (inactive)
Brc1cccc(-c2nnco2)c1	> 4 mM (inactive)
COc1ccc(NC(=O)C2CC(=O)N=C(N)S2)cc1 (stereo not drawn)	> 4 mM (inactive)
OC1CCN(C(=S)NC2CC2)CC1	> 4 mM (inactive)
NC(=O)NCCCC(N)C(=O)O (stereo not drawn)	> 4 mM (inactive)
Cc1oc(-c2ccccc2)cc1C(N)=O	> 4 mM (inactive)
CNS(=O)(=O)c1ccc2[nH]c(=O)[nH]c2c1	> 4 mM (inactive)
C=C[C@H]1CN2CC[C@H]1C[C@@H]2[C@H](O)c1ccnc2ccccc12	> 4 mM (inactive)
CCOC(=O)C1CCN(c2ccc(C#N)cc2)CC1	> 4 mM (inactive)
O=C(c1ccco1)N1CCN(c2ccc(Cl)cc2)CC1	> 4 mM (inactive)
O=c1c(O)c(-c2ccccc2)oc2ccccc12	> 4 mM (inactive)
O=C(CO)N/N=C/c1ccccc1F	> 4 mM (inactive)
O=C(O)c1ccc(N2CCOCC2)cc1	> 4 mM (inactive)
O=C(O[C@@H]1Cc2c(O)cc(O)cc2O[C@@H]1c1cc(=O)c(O)c2c(O)c(O)cc([C@H]3Oc4cc(O)cc(O)c4C[C@H]3O)c2c1)c1cc(O)c(O)c(O)c1	> 4 mM (inactive)
CC(=O)O[C@@H]1CC2C(C)(C)C=CC(=O)[C@]2(C)C2CC[C@@]3(C)[C@H](c4ccoc4)OC(=O)C4OC43[C@@]21C (stereo partly drawn)	> 4 mM (inactive)
Cc1cc(NC(=O)Cc2cccs2)no1	> 4 mM (inactive)
C[C@@H]1O[C@@H](O[C@H]2[C@H](Oc3cc(O)c4c(=O)cc(-c5ccc(O)cc5)oc4c3)O[C@H](CO)[C@@H](O)[C@@H]2O)[C@H](O)[C@H](O)[C@H]1O	> 4 mM (inactive)
Cc1occc1C(=O)NC1CCN(C)CC1	> 4 mM (inactive)
